Experimental data published in patent publication US20240398772A1, “OXASPIRO DERIVATIVE, AND PREPARATION METHOD THEREFOR AND USE THEREOF” (SHUJING BIOPHARMA CO., LTD, priority 2021, published 2024).

Legend:
[1] = target: T1, MOR (Homo sapiens, UniProt P35372); assay: Agonist test on MOR, cAMP level (CHO-K1/OP3 cells, cAMP assay kit); type: cell-based; conditions: for EC50: forskolin-stimulated cAMP, read-out: EC50 agonizing MOR receptor to affect cAMP level; for Emax: maximal effect of DAMGO is 100%, read-out: Emax agonizing MOR receptor to affect cAMP level
T1 construct: expressed in transfected cells; host or cells: CHO-K1/OP3 (name from the earlier reading)
Description: 5×stimulation buffer was diluted to 1× with ddH2O, an appropriate amount of 500 mM IBMX (generally, the IBMX stock solution was prepared to be 500 mM, namely 1000×) was added to enable the final concentration of the IBMX to be 0.5 mM, and the mixture was mixed well for later use (after the IBMX was added, that precipitation occurred was normal, and the precipitate was dissolved by well mixing). It must be prepared right before use.
1.3.1.2 IBMX was dissolved with DMSO to prepare a 500 mM stock solution, which was aliquoted into 20 μL/tube and cryopreserved at −80° C. to avoid repetition of freezing and thawing.
1.3.1.3 Forskolin was dissolved with DMSO to prepare a 10 mM stock solution, which was aliquoted into 20 μL/tube and cryopreserved at −20° C. for later use.
The CAMP standard substance in the kit returned to room temperature, and an equivalent amount of the experimental buffer was added according to the volume marked on the bottle label. The mixture was vortexed for mixing, aliquoted according to 50 μL/tube, and cryopreserved at −20° C. for later use.
5 mL ddH2O was added to a bottle of cAMP-d2 and a bottle of anti-cAMP-cryptate lyophilized powder, respectively, and the mixture was mixed well by gently turning the mixture upside down, aliquoted according to 125, 62.5, and 30 μL, and the like, and cryopreserved in the dark at −80° C.
1.3.2.1 Positive compound DAMGO and the test compound were serially diluted 4-fold to obtain 10 concentrations with Bravo using experimental buffer in a compound plate (Greiner-781280) at a starting concentration of 2 μM (from DMSO stock solution diluted with experimental buffer) and 20 μM (from DMSO stock solution diluted with experimental buffer), respectively.
1.3.2.2 Cells cryopreserved were thawed in a water bath at 37° C., the cell suspension was added to a centrifuge tube containing 10 mL of HBSS buffer, and the mixture was centrifuged at 750 rpm for 5 min. The supernatant was discarded, the pellet was resuspended in an appropriate amount of experimental buffer, and 20 μL of the pellet was counted using a cell counter. An appropriate amount of the cell suspension was diluted to 0.4×10^6 cells/mL, and 5 μL of the cell suspension was added to each well of a cell plate (the cell density was 2000 cells/well) and centrifuged at 1000 rpm for 1 min. 5 μL of the diluted compound was transferred to a cell plate (PerkinElmer-6008280) with Bravo, 5 μL of 2 μM DAMGO (the final concentration was 1 μM) was transferred to positive control wells, and an equal volume of experimental buffer was transferred to negative control wells, and the cell plate was centrifuged at 1000 rpm for 1 min. The cell plate was sealed and incubated at room temperature for 15 min. Forskolin was diluted to 0.2 mM with DMSO, 25.1 nL of which was transferred to a cell plate with Tecan-D300e, and the plate was centrifuged at 1000 rpm for 1 min, sealed, and incubated at room temperature for 45 min.
The final concentration of the initial point was 712 nM.
1.3.2.4 Preparation of detection reagent: an appropriate amount of a cAMP-d2 stock solution and an anti-cAMP-cryptate stock solution was diluted with a lysis buffer according to the ratio of 1:20, the two solutions were then mixed well by turning the solutions upside down according to the ratio of 1:1, and vortexing was prohibited. 10 μL of the prepared detection reagent was added to a cell plate and centrifuged at 1000 rpm for 1 min. The cell plate was incubated at room temperature for 1 h in the dark. After the cell plate was centrifuged at 1000 rpm for 1 min, the plate was read using Envision. Excitation light at 340 nm, emission light at 620 nm and 665 nm.
The formula for calculating the compound activation rate in the agonist test: […]

[2] = system: pain threshold of a mouse; assay: Mouse thermal radiation tail-flick method; type: in vivo, ICR mice; conditions: for Maximum analgesic percentage (% MPE): ICR mice, intragastric 10 mg/kg, Mean ± SEM, n = 9-10
Description: • Intragastric administration at a dose of 10 mg/kg;
ICR mice (normal grade, weighed 25-35 g, purchased from Shanghai Slac Laboratory Animal Co., Ltd.) were first mounted in a special plastic cylinder, their tails were exposed and allowed to droop naturally, and the measurements were made after the animals were calm. The radiation heat source could be an 8.75 mm projection lamp (32 W, adjustable). A light beam with the diameter of about 4 mm was emitted after being focused by a lens, which irradiated the skin at the junction of the middle third and the lower third of the tail (the light source and the skin at the tail must be closely attached); an electronic timer connected with the light source in parallel was used to synchronously record the irradiation duration, that is, when the irradiation started, a stopwatch was automatically started at the same time. When the tail of the animal obviously evaded, the timing was automatically stopped. The measured time interval was the tail flick latency. Mice with tail flick latency of 2-6 seconds were screened to participate in a grouping administration experiment. […] After a dose of a drug was administered to the mice, the pain threshold of the mice was measured at different times.
After a dose of a drug was administered to the mice, the pain threshold of the mice was measured at 0.5 h, 1 h, 2 h, and 3 h (effect view of the analgesic effect is shown in FIG. 1). The formula for calculating the maximum analgesic percentage (% MPE) after administration was as follows: % MPE=(post-administration pain threshold−pre-administration pain threshold)/(15−pre-administration pain threshold)×100%.

T1 sequence (P35372 whole entry): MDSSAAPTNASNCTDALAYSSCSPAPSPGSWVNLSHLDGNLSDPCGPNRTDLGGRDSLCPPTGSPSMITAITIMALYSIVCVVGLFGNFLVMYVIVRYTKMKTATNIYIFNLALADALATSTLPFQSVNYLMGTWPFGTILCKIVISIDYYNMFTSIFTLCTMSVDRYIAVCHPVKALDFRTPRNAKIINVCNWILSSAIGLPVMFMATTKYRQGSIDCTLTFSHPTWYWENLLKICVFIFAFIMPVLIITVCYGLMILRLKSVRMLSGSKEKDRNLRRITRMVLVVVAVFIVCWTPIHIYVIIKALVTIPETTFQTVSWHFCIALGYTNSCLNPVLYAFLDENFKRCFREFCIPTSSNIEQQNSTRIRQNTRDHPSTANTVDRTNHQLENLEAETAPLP

Row | Compound | EC50 [1] [nM] | Emax [1] [%] | also measured
1 | Fc1ccc(C2(CCN[C@H]3CCc4ccc(F)cc43)CCOC3(CCOCC3)C2)nc1 (stereo partly drawn) [Compound 1-1, (1S)-6-fluoro-N-(2-(4-(5-fluoropyridin-2-yl)-1,9-dioxaspiro[5.5]undecan-4-yl)ethyl)-2,3-dihydro-1H-inden-1-amine] | 0.44 | 103 | 
2 | Fc1ccc(C2(CCN[C@H]3CCc4c(F)cccc43)CCOC3(CCOCC3)C2)nc1 (stereo partly drawn) [Compound 2-1, (1S)-4-fluoro-N-(2-(4-(5-fluoropyridin-2-yl)-1,9-dioxaspiro[5.5]undecan-4-yl)ethyl)-2,3-dihydro-1H-inden-1-amine] | 23.5 | 101 | 
3 | Fc1ccc(C2(CCN[C@H]3CCc4ccccc43)CCOC3(CCOCC3)C2)nc1 (stereo partly drawn) [Compound 3-1, (1S)-N-(2-(-4-(5-fluoropyridin-2-yl)-1,9-dioxaspiro[5.5]undecan-4-yl)ethyl)-2,3-dihydro-1H-inden-1-amine] | 0.79 | 99.9 | 
4 | Fc1ccc(C2(CCNC3CCc4ccc(Cl)cc43)CCOC3(CCOCC3)C2)nc1 (stereo not shown) [Compound 4, 6-chloro-N-(2-(4-(5-fluoropyridin-2-yl)-1,9-dioxaspiro[5.5]undecan-4-yl)ethyl)-2,3-dihydro-1H-inden-1-amine] | 2.19 | 103 | 
5 | Fc1ccc(C2(CCN[C@H]3CCc4c(Cl)cccc43)CCOC3(CCOCC3)C2)nc1 (stereo partly drawn) [Compound 5-1, (1S)-4-chloro-N-(2-(4-(5-fluoropyridin-2-yl)-1,9-dioxaspiro[5.5]undecan-4-yl)ethyl)-2,3-dihydro-1H-inden-1-amine] | 1.33 | 111 | 
6 | Cc1cccc2c1CC[C@@H]2NCCC1(c2ccc(F)cn2)CCOC2(CCOCC2)C1 (stereo partly drawn) [Compound 6-1, (1S)-N-(2-(4-(5-fluoropyridin-2-yl)-1,9-dioxaspiro[5.5]undecan-4-yl)ethyl)-4-methyl-2,3-dihydro-1H-inden-1-amine] | 1.56 | 118 | 
7 | Fc1ccc(C2(CCN[C@H]3CCc4c(Br)cccc43)CCOC3(CCOCC3)C2)nc1 (stereo partly drawn) [Compound 7-1, (1S)-4-bromo-N-(2-(4-(5-fluoropyridin-2-yl)-1,9-dioxaspiro[5.5]undecan-4-yl)ethyl)-2,3-dihydro-1H-inden-1-amine] | 1.69 | 116 | 
8 | Fc1ccc([C@]2(CCN[C@H]3Cc4cccc(Br)c4C3)CCOC3(CCOCC3)C2)nc1 [Compound 10-1-1, (S)-4-bromo-N-(2-((R)-4-(5-fluoropyridin-2-yl)-1,9-dioxaspiro[5.5]undecan-4-yl)ethyl)-2,3-dihydro-1H-inden-2-amine] | 0.8 | 104 | 
9 | Fc1ccc(C2(CCNCc3cccc(Cl)c3)CCOC3(CCOCC3)C2)nc1 (stereo not shown) [Compound 11, N-(3-chlorobenzyl)-2-(4-(5-fluoropyridin-2-yl)-1,9-dioxaspiro[5.5]undecan-4-yl)ethan-1-amine] | 7.75 | 100 | 
10 | Cc1c(Cl)cccc1CNCC[C@@]1(c2ccc(F)cn2)CCOC2(CCOCC2)C1 [Compound 12-1, (R)—N-(3-chloro-2-methylbenzyl)-2-(4-(5-fluoropyridin-2-yl)-1,9-dioxaspiro[5.5]undecan-4-yl)ethan-1-amine] | 1.29 | 93.8 | Maximum analgesic percentage (% MPE) ([2]; 0.5 h after administration): 99.48 ± 0.52 %; Maximum analgesic percentage (% MPE) ([2]; 1 h after administration): 86.20 ± 9.32 %; Maximum analgesic percentage (% MPE) ([2]; 2 h after administration): 89.98 ± 10.02 %; Maximum analgesic percentage (% MPE) ([2]; 3 h after administration): 78.89 ± 10.05 %; Maintenance of the analgesic effect compared with oxycodone ([2]; mouse tail flick, 0.5-3 h after administration): maintained for a longer period of time; Drug effect compared with oxycodone ([2]; mouse tail flick, same dose (10 mg/kg intragastric)): better drug effect than oxycodone
11 | Fc1ccc(C2(CCNCc3cccc(Cl)c3Cl)CCOC3(CCOCC3)C2)nc1 (stereo not shown) [Compound 13, N-(2,3-dichlorobenzyl)-2-(4-(5-fluoropyridin-2-yl)-1,9-dioxaspiro[5.5]undecan-4-yl)ethan-1-amine] | 17.3 | 78.9 | 
12 | Fc1ccc(C2(CCNCc3cccc(Cl)c3F)CCOC3(CCOCC3)C2)nc1 (stereo not shown) [Compound 14, N-(3-chloro-2-fluorobenzyl)-2-(4-(5-fluoropyridin-2-yl)-1,9-dioxaspiro[5.5]undecan-4-yl)ethan-1-amine] | 24.2 | 88.1 | 
13 | Clc1cccc2c1CCC2NCCC1(c2ccccn2)CCOC2(CCOCC2)C1 (stereo not shown) [Compound 16, 4-chloro-N-(2-(4-(pyridin-2-yl)-1,9-dioxaspiro[5.5]undecan-4-yl)ethyl)-2,3-dihydro-1H-inden-1-amine] | 2.4 | 102 | 
14 | Fc1ccc(C2(CCNC3Cc4cccc(Cl)c4C3)CCOC3(CCOCC3)C2)nc1 (stereo not shown) [Compound 17, 4-chloro-N-(2-(4-(5-fluoropyridin-2-yl)-1,9-dioxaspiro[5.5]undecan-4-yl)ethyl)-2,3-dihydro-1H-inden-2-amine] | 2.14 | 93.8 | 
15 | Fc1ccc([C@]2(CCN[C@H]3Cc4cccc(Cl)c4C3)CCOC3(CCOCC3)C2)nc1 [Compound 17-1-1, (S)-4-chloro-N-(2-((R)-4-(5-fluoropyridin-2-yl)-1,9-dioxaspiro[5.5]undecan-4-yl)ethyl)-2,3-dihydro-1H-inden-2-amine] | 0.64 | 102 | 
16 | COc1ccc2c3c1O[C@H]1C(=O)CC[C@@]4(O)[C@@H](C2)N(C)CC[C@]314 [Oxycodone, reference compound] |  | 95.2 | Maximum analgesic percentage (% MPE) ([2]; 0.5 h after administration): 37.87 ± 12.44%; Maximum analgesic percentage (% MPE) ([2]; 2 h after administration): 3.63 ± 8.14%; Maximum analgesic percentage (% MPE) ([2]; 3 h after administration): −0.23 ± 6.48%
